Source: US5368707A, “Convenient determination of trace lead in whole blood and other fluids” (priority 1993, dated 1994)

Assays:
[1] = biological target: T1, isocitrate dehydrogenase (Sus scrofa, UniProt P33198); test: Effect of temperature on lead inhibition of isocitrate dehydrogenase (Example 9); format: biochemical, pig; settings: for Inhibition rate: 4 μM lead, 10 nM enzyme, 15 min; for inhibition rates: lead concentration not printed at this place
T1 construct: purchased Sigma, St. Louis, Mo; ICD Type VI
T1 sequence (P33198 9-421): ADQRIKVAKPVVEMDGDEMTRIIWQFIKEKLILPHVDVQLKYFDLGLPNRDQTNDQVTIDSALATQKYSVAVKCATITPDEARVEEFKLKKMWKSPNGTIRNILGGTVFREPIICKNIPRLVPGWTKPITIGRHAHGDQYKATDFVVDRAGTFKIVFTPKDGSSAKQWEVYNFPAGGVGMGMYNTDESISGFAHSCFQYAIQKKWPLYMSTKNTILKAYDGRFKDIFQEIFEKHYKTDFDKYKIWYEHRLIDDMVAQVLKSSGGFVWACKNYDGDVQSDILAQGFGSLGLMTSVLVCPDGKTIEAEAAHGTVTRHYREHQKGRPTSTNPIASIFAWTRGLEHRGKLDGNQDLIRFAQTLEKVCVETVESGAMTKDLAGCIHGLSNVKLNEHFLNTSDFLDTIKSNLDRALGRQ
Description: The activity of isocitrate dehydrogenase and its response is affected by several factors.
A solution of isocitrate dehydrogenase (10 nM) was incubated for 15 min at various temperatures between 18° C. and 37° C. and rate of lead inhibition measured. Inhibition rates increased approximately linearly from about 25% to 85% at a lead concentration of 4 μM (FIG. 5).

[2] = biological target: T1, isocitrate dehydrogenase; test: ICDH inhibition by lead in the presence of EDTA with or without CoSO4 (Example 8); format: biochemical, pig; settings: 2 mM EDTA; for Inhibition: 2.5 mM CoSO4
Text: A major problem in the measurement of lead in blood is the interference by various blood proteins and, as in the majority of clinical samples, the presence of excess amounts of EDTA. The inventors have discovered that lead chelated with EDTA is exchangeable with cobalt(II). As shown in this example, lead Pb(II) is displaced from EDTA by cobalt(II) and detected by its inhibition of isocitrate dehydrogenase (ICDH).
Micromolor concentrations of lead were detected by ICDH inhibition in the presence of 2 mM EDTA and 2.5 mM CoSO4.

[3] = biological target: T1, isocitrate dehydrogenase; test: Sensitivity of isocitrate dehydrogenase to lead ion (detection level); format: biochemical, pig
Description: (§1) Pig heart NADP-linked isocitric dehydrogenase (ICD, EC 1.1.1.42), an oxidoreductase, is sensitive to trace levels of lead ion as low as 1 μg/dl. […] In fact, at low concentrations of activator, e.g., <200 ppb Mn^++, the activity of ICD is proportional to Mn^++ and may be used to determine activator concentration (Guilbault, 1970). Inactivation by inhibitors is useful for determining inhibitor concentration. Specificity of enzymes for activators, or inhibitors, is not as great as for the natural substrate of the enzyme, but in some cases inhibitor concentration may be selectively determined. Silver and mercury have been determined in the presence of each other using isocitrate dehydrogenase (Mealor and Townshend, 1968). However, until now, there has been no satisfactory rapid amperometric method to determine lead ion based on ICD inhibition, much less a simple method to determine low lead ion concentrations in whole blood.
The inventors have developed a highly sensitive method for the determination of lead ion in solution. Isocitrate dehydrogenase, under specific conditions, may be employed in an assay to quantitatively determine lead ion in the range 0-30 μg per deciliter of solution. Assay sensitivity can be adjusted to a desired concentration range for lead by altering one or more of several parameters such as the concentration of isocitric dehydrogenase. Lower enzyme concentrations increase sensitivity to lead ion.
The inventors have shown that less than 1 μg/dL of lead in solution may be measured employing the enzyme isocitrate dehydrogenase. The measurements are sensitive to several factors, including pH, enzyme concentration, co-factor concentration and temperature. The following example illustrates the effect of pH on enzyme inhibition.

[4] = biological target: T1, isocitrate dehydrogenase; test: Amperometric lead inhibition of ICDH in homogeneous aqueous solution (Example 1); format: biochemical, pig; settings: pH 8.5 Tris; for Current: 0 V
Description: as §1
The following example illustrates determination of trace amounts of lead ion in aqueous medium through the inhibition of isocitrate dehydrogenase (ICDH) in homogeneous solution.
Commercially available ICDH (Sigma Chemical Company, St. Louis, Mo.) typically contains considerable amounts of sulfate that interferes with lead ion inhibition of ICDH. Dialysis of ICDH against low ionic strength phosphate buffer caused loss of its activity, which was restored by addition of Mn^2+.
A glassy carbon rod of 3 mm diameter was wrapped in teflon tubing as working electrode and surrounded with a layer of Pt foil as the counter electrode with a silver wire placed in between as the reference electrode. At least one layer of teflon was inserted between two of the three electrodes. All three electrode surfaces were on the same plane. Tubing was fixed on the top of the coplanar electrode surface with an O-ring, forming a microcell of 100-200 μl in volume.
To the microcell was added in sequence: 100 μl 50 mM pH 8.5 Tris buffer, ca. 0.3-0.4 units ICDH and, after 15 min, 5 μl 25 mM NMP-MS, 5 μl 60 mM NADP. The background current was measured at 0 V. 10 μl of 0.5M isocitrate was added and the current measured again. The difference in the two signals was taken as due to the oxidation of isocitrate catalyzed by ICDH.
To measure lead inhibition of ICDH, lead ion was added to the above solution after addition of ICDH but 15 min prior to the addition of NMP-MS and NADP. The current difference with isocitrate was due to inhibition of ICDH by the added lead. FIG. 3 indicates the sensitivity of the electrode to lead ion concentrations in the submicromolar range.

[5] = tested on: Horseradish peroxidase; settings: Guilbault, et al., 1968; cited from earlier work

In the case of `[Pb+2]` [lead ion], the Inhibition rate ([1]; 18° C.) is reported as “about 25%”, the inhibition rates ([1]; 18° C.) is reported as 25% and the Inhibition rate ([1]; 37° C.) is reported as roughly 85%. The inhibition rates ([1]; 37° C.) was “about 85%”, the Inhibition ([2]; 12 μM lead) was 23% and the Inhibition ([2]; 36 μM lead) was 32%. For the same molecule, the Inhibition ([2]; 121 μM lead) was 47%, the “Inhibition (in words)” value ([2]; absence of CoSO4) was “no inhibition was observed” and the “reversibility of binding to ICDH” value [3] was “binds irreversibly to the enzyme”. For the same molecule, the “detectable lead ion level” value ([3]; ICDH inhibition) was roughly 1 µg/dL, the “quantitatively determinable lead range” value ([3]; isocitrate dehydrogenase assay, in solution) was 0-30 μg per deciliter and the “% inhibition” value ([4]; 1.89 μM Pb++) was 85.3%. For the same molecule, the Current ([4]; 1.89 μM Pb++) was 218 nA, the “% inhibition” value ([4]; 90.9 μM Pb++) was 98.2% and the Current ([4]; 90.9 μM Pb++) was 26 nA. For the same molecule, the “linear range of peroxidase inhibition” value [5] was 10 to 185 µg/mL.
